We go through nine compounds from patent US10981932B2, “Macrocyclic indole derivatives” (Bayer Aktiengesellschaft, priority 2016, dated 2021).

Several values for one entry are separate records, joined by “and”; a condition that tells them apart may be missing. Equal values may be shown once. Read-outs that look alike come from different tables or passages of the source. Bounds are passed on as bounds.

For data set [1], the system named is SUDHL5. Nature of the data set: Induction of caspase-3/7 activity (Caspase-Glo 3/7), SUDHL5. Type of data set: cell-based. As to conditions: caspase-3/7 induction, SUDHL5 cells, 3 h treatment, median. Here is the method:
(§1) Induction of Caspase-317 Activity Upon Treatment of Cells with Selected Compounds
(§2) The BH3-domain of MCL-1 sequesters pro-apoptotic proteins, thereby inhibiting apoptosis. In contrast, MCL-1 inhibitors are expected to antagonize this effect leading to an increase in apoptosis, which can be determined by measuring the activity of caspase-3/7.
(§3) The activity of caspase-3/7 was determined in DLBCL (Diffuse large B-cell lymphoma) cell lines (SUDHL5 and SUDHL10) upon treatment with different compounds, using the Caspase-Glo® 3/7 reagent from Promega (G8092).
(§4) Rim wells were excluded. The cells were incubated for 3 h hours in a humidified incubator at 37° C.
(§5) For the evaluation of the results, the background measured with “medium-only” was subtracted from all other values. […] The Bella DRC Master Sheet was used to calculate EC50s, with fixed C0=1 and CI=plateaulmax induction for the reference compound.

Data set [2] concerns SUDHL10. Nature of the data set: Induction of caspase-3/7 activity (Caspase-Glo 3/7), SUDHL10. The format is cell-based. As to conditions: caspase-3/7 induction, SUDHL10 cells, 3 h treatment, median. The protocol:
as §1, §2, §3, §4, §5

The subject of data set [3] is SUDHL5. Nature of the data set: Induction of cytotoxicity (CellTiter-Glo, 5 h), SUDHL5. On the technique in general: Cellular ATP, detected with luciferase, serves as a proxy for viable cell number.
Data set [4] concerns SUDHL10. Nature of the data set: Induction of cytotoxicity (CellTiter-Glo, 5 h), SUDHL10.
Another data set deals with MCL-1 (Homo sapiens, UniProt Q07820). Nature of the data set: Protein-protein interaction assay MCL-1/Noxa BH3 peptide (MCL-1 assay), TR-FRET. Type of data set: binding. As to conditions: MBP-MCL-1 / Noxa BH3-derived peptide, median. Here is the method: Protein-Protein Interaction Assay: MCL-1/Noxa BH3 Peptide (MCL-1 Assay) […]
In the assay 11 different concentrations of each compound (0.1 nM, 0.33 nM, 1.1 nM, 3.8 nM, 13 nM, 44 nM, 0.15 μM, 0.51 μM, 1.7 μM, 5.9 μM and 20 μM) were typically measured as duplicates in the same microtiter plate. For that, 100-fold concentrated DMSO solutions were prepared by serial dilutions (1:3.4) of a 2 mM stock solution in a clear, 384-well microtiter plate (Greiner Bio-One, Frickenhausen, Germany). From there, 50 ni were transferred in a dark test plate (Greiner Bio-One, Frickenhausen, Germany). The assay was initiated by addition of 2 μl of a 2.5-fold concentrated MBP-MCL-1 solution (usually for a 1 nM end concentration in 5 μl reaction volume) in aqueous assay buffer [50 mM Tris/HCl pH 7, 100 mM sodium chloride (NaCl), 50 mM potassium fluoride (KF), 0.005% Tween-20, 2 mM DTT, 0.1% bovine gamma globulin (BGG)] to the compounds in the assay plate. This was followed by a 10-minute incubation step at 22° C. for pre-equilibration of the putative complex between MBP-MCL-1 and the compounds. After that.
The mixture was incubated in the dark for one hour at 22° C. and then overnight at 4° C. The formation of MCL-1/Noxa complexes was determined by measuring the resonance energy transfer of the anti-MBP- Eu-cryptate antibody to the streptavidin-XL665 present in the reaction. For that purpose, the fluorescence emission at 620 nm and 665 nm after excitation at 330-350 nm was measured in a TR-FRET measuring instrument, for instance a Rubystar or a Pherastar (both from BMG Lab Technologies, Offenburg, Germany) or a Viewlux (Perkin-Elmer). The ratio of the emission at 665 nm and at 622 nm was used as indicator of the amount of MCL-1/NOXA complexes present.
The resulting data (ratio) were normalized, taking 0% inhibition as the mean value of control measurements (usually 32 data points) where all reagents were included. In this case 50 nl DMSO were used instead of compounds. A 100% inhibition corresponded to the mean value of control measurements (usually 32 data points) where all reagents except MCL-1 were included. IC50 values were determined by regression analysis based on a 4 parameter equation (minimum, maximum, IC50, Hill; Y=Max+(Min−Max)/(1+(X/IC50)^Hill) using the Screener Software (Genedata).
(In TR-FRET formats the signal depends on donor and acceptor labels being close together.)

The test system of the next data set is A2780. Nature of the data set: Anti-proliferative effect (CellTiter-Glo, 72 h), A2780. Type of data set: cell-based. As to conditions: Homo sapiens, A2780, 72 h, A2780 cells, median, read-out: IC50 antiproliferation assay A2780 [M] (median). Here is the method:
Assessment of the Anti-Proliferative Effect of Compounds in Different Cell Lines
The impact of compounds on the proliferation of different cell lines was assessed using the CellTiter-Glo® Luminescent Cell Viability reagent from Promega (G7573). Of note, SUDHL10 and SUDHL5 (DLBCL), NCI-H929 (Multiple Myeloma), A2780 (ovarian carcinoma) as well as MV-4-11(AML) cells are sensitive to MCL-1 inhibition.
In parallel, cells were plated in a reference (day 0) plate for time zero determination.
Rim wells were excluded. The cells were incubated for 72 h hours in a humidified incubator at 37° C. The day 0 plate was measured by adding 30 μl/well of CTG solution (CellTiter-Glo® Luminescent Cell Viability reagent, Promega G7573) to time zero wells in the reference plate followed by a 10 minutes incubation and luminescence reading at 0.1 ms, using the PHERAstar FS microplate reader (BMG Labtech).
After 72 h incubation, the treated plates were measured in the same way as the day 0 plate mentioned above.

The mark [5] stands for this setting: Homo sapiens, SU-DHL-5, 5 h, read-out: Cytotox SUDHL5 [M] (median), SUDHL5 cells, cytotoxicity induction, CellTiter-Glo, 5 h incubation, median.
Where [6] appears, read: Homo sapiens, SU-DHL10, 5 h, read-out: Cytotox SUDHL10 [M] (median), SUDHL10 cells, cytotoxicity induction, CellTiter-Glo, 5 h incubation, median.
The mark [7] stands for this setting: read-out: Cytotox SUDHL10 [M] (median), SUDHL10 cells, cytotoxicity induction, CellTiter-Glo, 5 h incubation, median.

MCL-1, sequence (Q07820 whole entry): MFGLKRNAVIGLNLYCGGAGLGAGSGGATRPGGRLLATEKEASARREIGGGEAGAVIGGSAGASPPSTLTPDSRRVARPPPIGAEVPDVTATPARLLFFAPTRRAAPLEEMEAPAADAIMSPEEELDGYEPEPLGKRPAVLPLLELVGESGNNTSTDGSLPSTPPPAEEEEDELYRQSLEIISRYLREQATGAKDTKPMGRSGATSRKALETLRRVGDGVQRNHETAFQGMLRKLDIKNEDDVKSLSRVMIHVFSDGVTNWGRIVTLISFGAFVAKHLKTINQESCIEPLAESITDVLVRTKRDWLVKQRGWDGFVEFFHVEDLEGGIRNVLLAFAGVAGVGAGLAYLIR

By EC50 is commonly meant the concentration giving half of the maximal effect. Read a high EC50 as a less potent agent. Turning to `CC(=O)N1CCN(c2ccc(OCc3nn(C)c4c3-c3cccc5c(CCCOc6cccc7ccccc67)c(C(=O)O)n(c35)CC=CCOC4)cc2)CC1` (racemic) [Example 1-1, (rac)-(E/Z)-3-{[4-(4-acetylpiperazin-1-yl)phenoxy]methyl}-1-methyl-7-[3-(naphthalen-1-yloxy)propyl]-1,10,13,25-tetrahydropyrazolo[4′,3′:9,10][1,6]oxazacycloundecino[8,7,6-hi]indole-8-carboxylic Acid], the concentration for a half-maximal effect (EC50) stood at 14.8 µM with SUDHL5 [1] (Homo sapiens, SU-DHL-5, 3 h) and 22.5 µM in the data set on SUDHL10 [2] (Homo sapiens, SU-DHL10, 3 h). The IC50 in the data set with SUDHL5 [3] (setting [5]) and with SUDHL10 [4] (setting [6]) was more than 3.3e-05 M in each case.

Take `Cn1nc(COc2ccc(N3CCNCC3)cc2)c2c1COCC=CCn1c(C(=O)O)c(CCCOc3cccc4ccccc34)c3cccc-2c31` (racemic) [Example 1-2, (rac)-(E/Z)-1-methyl-7-[3-(naphthalen-1-yloxy)propyl]-3-{[4-(piperazin-1-yl)phenoxy]methyl}-1,10,13,15-tetrahydropyrazolo[4′,3′:9,10][1,6]oxazacycloundecino[8,7,6-hi]indole-8-carboxylic Acid]: the IC50 against MCL-1 was 70.6 nM; in the data set on SUDHL5 [3] (setting [5]) it was more than 3.3e-05 M; in the data set with SUDHL10 [4] (setting [6]), more than 3.3e-05 M. Further, the EC50 in the data set on SUDHL5 [1] (Homo sapiens, SU-DHL-5, 3 h) was more than 33 µM; in the data set with SUDHL10 [2] (Homo sapiens, SU-DHL10, 3 h) it was more than 33 µM.

Consider `CN1CCCn2c(C(=O)O)c(CCCOc3cccc4ccccc34)c3cccc(c32)-c2c(COCc3ccccc3)nn(C)c2C1` (racemic) [Example 1-93, (rac)-11-[(benzyloxy)methyl]-7,9-dimethyl-1-[3-(naphthalen-1-yloxy)propyl]-4,5,6,7,8,9-hexahydropyrazolo[3′,4′:7,8][1,5]diazecino[9,10,1-hi]indole-2-carboxylic Acid], for which the figures for the IC50 on MCL-1, with SUDHL5 [3] (setting [5]) and in the data set on SUDHL10 [4] (setting [6]) were 74.9 nM, more than 3.3e-05 M and more than 3.3e-05 M, respectively. Also, the EC50 is more than 33 µM in the data set on SUDHL5 [1] (Homo sapiens, SU-DHL-5, 3 h) and 31.8 µM with SUDHL10 [2] (Homo sapiens, SU-DHL10, 3 h).

With `Cn1nc(COCc2ccccc2)c2c1COCC=CCn1c(C(=O)O)c(CCCOc3cccc4ccccc34)c3cccc-2c31` (racemic) [Example 1-94, (rac)-(E/Z)-3-[(benzyloxy)methyl]-1-methyl-7-[3-(naphthalen-1-yloxy)propyl]-1,10,13,15-tetrahydropyrazolo[4′,3′9,10][,6]oxazacycloundecino[8,7,6-hi]indole-8-carboxylic Acid], the results for the IC50 at MCL-1, in the data set on SUDHL5 [3] (setting [5]) and in the data set with SUDHL10 [4] (setting [6]) were 141 nM, more than 3.3e-05 M and more than 3.3e-05 M, respectively. Also, the EC50 is more than 33 µM in the data set on SUDHL5 [1] (Homo sapiens, SU-DHL-5, 3 h) and more than 33 µM in the data set on SUDHL10 [2] (Homo sapiens, SU-DHL10, 3 h).

As to `Cn1nc2c(c1CN1CCOCC1)-c1cccc3c(CCCOc4cccc5ccccc45)c(C(=O)O)n(c13)CCCCOC2` (racemic) [Example 078, (rac)-2-Methyl-3-(morpholin-4-ylmethyl)-7-[3-(naphthalen-1-yloxy)propyl]-2,10,11,12,13,15-hexahydropyrazolo[4′,3′:9,10][1,6]oxazacycloundecino[8,7,6-hi]indole-8-carboxylic Acid], the IC50 against MCL-1 turned out to be 13.1 nM; in the data set with A2780, 1.96e-05 M. Besides, the EC50 in the data set with SUDHL5 [1] (Homo sapiens, SU-DHL-5, 3 h) was 14.1 µM; with SUDHL10 [2] (Homo sapiens, SU-DHL10, 3 h), more than 33 µM.

Consider `Cn1nc(COc2ccccc2)c2c1COCCCCn1c(C(=O)O)c(CCCOc3cccc4ccccc34)c3cccc-2c31` (single isomer, unassigned) [Example 1-79, 1-methyl-7-[3-(naphthalen-1-yloxy)propyl]-3-(phenoxymethyl)-1,10,11,12,13,15-hexahydropyrazolo[4′3′:9,10][1,6]oxazacycloundecino[8,7,6-hi]indole-8-carboxylic Acid], for which the IC50 on MCL-1 was 656 nM; in the data set with SUDHL5 [3] (setting [5]), more than 3.3e-05 M; in the data set on SUDHL10 [4] (setting [6]), 3.09e-05 M. Moreover, the EC50 in the data set with SUDHL5 [1] (Homo sapiens, SU-DHL-5, 3 h) was more than 33 µM; with SUDHL10 [2] (Homo sapiens, SU-DHL10, 3 h) it was 20.7 µM.

As to `Cn1nc(COc2ccccc2)c2c1COCCCCn1c(C(=O)O)c(CCCOc3cccc4ccccc34)c3cccc-2c31` (single isomer, unassigned) [Example 1-80, 1-methyl-7-[3-(naphthalen-1-yloxy)propyl]-3-(phenoxymethyl)-1,10,11,12,13,15-hexahydropyrazolo[4′,3′:9,10][1,6]oxazacycloundecino[8,7,6-hi]indole-8-carboxylic Acid], the IC50 at MCL-1 was 50.1 nM; in the data set on SUDHL5 [3] (read-out: Cytotox SUDHL5 [M] (median), SUDHL5 cells, cytotoxicity induction, CellTiter-Glo, 5 h incubation, median), more than 3.3e-05 M; in the data set with SUDHL10 [4] (setting [7]), more than 3.3e-05 M. The EC50 in the data set on SUDHL5 [1] and in the data set on SUDHL10 [2] was more than 33 µM throughout.

With `Cc1ccc2c(CCCOc3cccc4ccccc34)c(C(=O)O)n3c2c1-c1c(nn(C)c1C)COCCCC3` (single isomer, unassigned; enantiomer 1) [Example 076, 2,3,4-trimethyl-7-[3-(naphthalen-1-yloxy)propyl]-2,10,11,12,13,15-hexahydropyrazolo[4′,3′:9,10][1,6]oxazacycloundecino[8,7,6-hi]indole-8-carboxylic Acid (Enantiomer 1)], the IC50 on MCL-1 amounted to 1.45 nM; with A2780, 2.28e-05 M. For the same compound, the half-maximal effective concentration (EC50) in the data set on SUDHL5 [1] turned out to be 1.32 µM; with SUDHL10 [2], 3.54 µM.

For `Cc1nn(C)c2c1-c1cccc3c(CCCOc4cccc5ccccc45)c(C(=O)O)n(c13)CCCN(c1ccc(N3CCN(S(=O)(=O)N(C)C)CC3)cc1)C2` (single isomer, unassigned; enantiomer 2) [Example 1-107, 7-{4-[4-(Dimethylsulfamoyl)piperazin-1-yl]phenyl}-9,11-dimethyl-1-[3-(1-naphthyloxy)propyl]-4,5,6,7,8,9-hexahydropyrazolo[3′,4′:7,8][1,5]diazecino[9,10,1-hi]indole-2-carboxylic Acid (Enantiomer 2)], the IC50 was 89.7 nM on MCL-1; 2.89e-05 M and > 3.3e-05 M in the data set on SUDHL10 [4] (setting [7]). For the same compound, the EC50 with SUDHL5 [1] was 19.4 µM and > 33 µM.
